Measured values from US20220386606A1, “SPECIFICALLY SUBSTITUTED 3-PHENYL-5-SPIROCYCLOPENTYL-3-PYRROLIN-2-ONES AND THEIR USE AS HERBICIDES” (Bayer Aktiengesellschaft, priority 2019, published 2022).

Tests used:
AVEFA = assay: Post-emergence herbicidal action against AVEFA; assay type: in vivo, Avena fatua; conditions: 80 g/ha, visual assessment after about 3 weeks
How it was run: (§1)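 Plants at the one-leaf stage receive a foliar spray of the formulated compound, with a 600 to 800 l/ha water rate and 0.2% wetting agent. Percent activity is judged by eye after roughly 3 weeks in the greenhouse.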

HORMU = assay: Post-emergence herbicidal action against HORMU; assay type: in vivo, Hordeum murinum; conditions: 80 g/ha, visual assessment about 3 weeks after treatment vs untreated controls
Protocol: Seeds of monocotyledonous and dicotyledonous weed and crop plants are laid out in sandy loam soil in wood-fiber pots, covered with soil and cultivated in a greenhouse under good growth conditions. 2 to 3 weeks after sowing, the test plants are treated at the one-leaf stage. The compounds of the invention, formulated in the form of wettable powders (WP) or as emulsion concentrates (EC), are then sprayed onto the green parts of the plants as aqueous suspension or emulsion at a water application rate equating to 600 to 800 l/ha with addition of 0.2% wetting agent. After the test plants have been left to stand in the greenhouse under optimal growth conditions for about 3 weeks, the action of the preparations is assessed visually in comparison to untreated controls (herbicidal action in percent (%): 100% activity=the plants have died, 0% activity=like control plants).

ALOMY = assay: Post-emergence herbicidal action against ALOMY; assay type: in vivo, Alopecurus myosuroides; conditions: 80 g/ha, visual assessment after about 3 weeks
How it was run: as §1

SETVI = assay: Post-emergence herbicidal action against SETVI; assay type: in vivo, Setaria viridis; conditions: 80 g/ha, visual assessment about 3 weeks after treatment vs untreated controls
How it was run: as §1

LOLRI = assay: Post-emergence herbicidal action against LOLRI; assay type: in vivo, Lolium rigidum; conditions: 80 g/ha, visual assessment about 3 weeks after treatment vs untreated controls
How it was run: as §1

ECHCG = assay: Post-emergence herbicidal action against ECHCG; assay type: in vivo, Echinochloa crus-galli; conditions: 80 g/ha, visual assessment about 3 weeks after treatment vs untreated controls
How it was run: as §1

DIGSA = assay: Post-emergence herbicidal action against DIGSA; assay type: in vivo, Digitaria sanguinalis; conditions: 80 g/ha, visual assessment about 3 weeks after treatment vs untreated controls
How it was run: as §1

SMILES	Post-emergence action against AVEFA in % (AVEFA) [%]	Post-emergence action against HORMU in % (HORMU) [%]	Post-emergence action against ALOMY in % (ALOMY) [%]	Post-emergence action against SETVI in % (SETVI) [%]	Post-emergence action against LOLRI in % (LOLRI) [%]	Post-emergence action against ECHCG in % (ECHCG) [%]	Post-emergence action against DIGSA in % (DIGSA) [%]
C#Cc1cc(Cl)c(C2=C(OC(=O)OCC)C3(CCC(COC)C3)NC2=O)c(OC)c1 (stereo not drawn) [Example P-19]	100	100	80	100	100	100	90
CC#Cc1cc(Cl)c(C2=C(OC(=O)OCC)C3(CCC(COC)C3)NC2=O)c(CC)c1 (stereo not drawn) [Example P-06]	100	100	100	100	100	100	100
C#Cc1cc(Cl)c(C2=C(O)C3(CCC(COC)C3)NC2=O)c(OC)c1 (stereo not drawn) [Example I-01]	90	100	100	90	100	90	90
C#Cc1cc(Cl)c(C2=C(O)C3(CCC(COCC)C3)NC2=O)c(OC)c1 (stereo not drawn) [Example I-14]	90	90	90	90	90	90	90
CC#Cc1cc(Cl)c(C2=C(O)C3(CCC(COCC)C3)NC2=O)c(CC)c1 (stereo not drawn) [Example I-15]	100	100	100	100	100	100	100
CC#Cc1cc(Cl)c(C2=C(OC(=O)OCC)C3(CCC(COCC)C3)NC2=O)c(CC)c1 (stereo not drawn) [Example P-20]	100	100	100	100	100	100	100
CC#Cc1cc(C)c(C2=C(OC(=O)OCC)C3(CCC(COCC)C3)NC2=O)c(Cl)c1 (stereo not drawn) [Example P-11]	100	100	80	100	100	–	100
